Data from ChEMBL document CHEMBL1671626, “In vitro profiling of ceftaroline against a collection of recent bacterial clinical isolates from across the United States” (2008).
Converted amounts (≈) assume the structure as drawn.

Key:
Type in all cases: functional
Klebsiella pneumoniae [1] = test: Antibacterial activity against ceftazidime-susceptible Klebsiella pneumoniae by CLSI M7-A7 broth microdilution method
Escherichia coli [2] = test: Antibacterial activity against ceftazidime-nonsusceptible Escherichia coli assessed as susceptible isolates by CLSI M7-A7 broth microdilution method
Klebsiella pneumoniae [3] = test: Antibacterial activity against ceftazidime-susceptible Klebsiella pneumoniae assessed as resistant isolates by CLSI M7-A7 broth microdilution method
Morganella morganii [4] = test: Antibacterial activity against ceftazidime-susceptible Morganella morganii by CLSI M7-A7 broth microdilution method
Haemophilus influenzae [5] = test: Antibacterial activity against beta lactamase-negative Haemophilus influenzae by CLSI M7-A7 broth microdilution method
Citrobacter freundii [6] = test: Antibacterial activity against ceftazidime-nonsusceptible Citrobacter freundii by CLSI M7-A7 broth microdilution method
Enterobacteriaceae [7] = test: Antibacterial activity against ceftazidime-susceptible Enterobacteriaceae assessed as susceptible isolates by CLSI M7-A7 broth microdilution method
Proteus mirabilis [8] = test: Antibacterial activity against ceftazidime-susceptible Proteus mirabilis assessed as susceptible isolates by CLSI M7-A7 broth microdilution method
Citrobacter freundii [9] = test: Antibacterial activity against ceftazidime-susceptible Citrobacter freundii assessed as susceptible isolates by CLSI M7-A7 broth microdilution method
Haemophilus influenzae [10] = test: Antibacterial activity against beta lactamase-negative Haemophilus influenzae assessed as resistant isolates by CLSI M7-A7 broth microdilution method
Serratia marcescens [11] = test: Antibacterial activity against ceftazidime-susceptible Serratia marcescens assessed as susceptible isolates by CLSI M7-A7 broth microdilution method
Escherichia coli [12] = test: Antibacterial activity against ceftazidime-nonsusceptible Escherichia coli assessed as resistant isolates by CLSI M7-A7 broth microdilution method
Enterobacter cloacae [13] = test: Antibacterial activity against ceftazidime-nonsusceptible Enterobacter cloacae assessed as susceptible isolates by CLSI M7-A7 broth microdilution method
Escherichia coli [14] = test: Antibacterial activity against ceftazidime-susceptible Escherichia coli by CLSI M7-A7 broth microdilution method
Klebsiella pneumoniae [15] = test: Antibacterial activity against ceftazidime-nonsusceptible Klebsiella pneumoniae by CLSI M7-A7 broth microdilution method
Haemophilus influenzae [16] = test: Antibacterial activity against beta lactamase-positive Haemophilus influenzae assessed as resistant isolates by CLSI M7-A7 broth microdilution method
Klebsiella pneumoniae [17] = test: Antibacterial activity against ceftazidime-susceptible Klebsiella pneumoniae assessed as susceptible isolates by CLSI M7-A7 broth microdilution method
Acinetobacter [18] = test: Antibacterial activity against imipenem-susceptible Acinetobacter by CLSI M7-A7 broth microdilution method
Klebsiella pneumoniae [19] = test: Antibacterial activity against ceftazidime-nonsusceptible Klebsiella pneumoniae assessed as resistant isolates by CLSI M7-A7 broth microdilution method
Enterobacteriaceae [20] = test: Antibacterial activity against ceftazidime-nonsusceptible Enterobacteriaceae assessed as susceptible isolates by CLSI M7-A7 broth microdilution method
Enterobacter cloacae [21] = test: Antibacterial activity against ceftazidime-susceptible Enterobacter cloacae by CLSI M7-A7 broth microdilution method
Escherichia coli [22] = test: Antibacterial activity against ceftazidime-nonsusceptible Escherichia coli by CLSI M7-A7 broth microdilution method
Morganella morganii [23] = test: Antibacterial activity against ceftazidime-susceptible Morganella morganii assessed as susceptible isolates by CLSI M7-A7 broth microdilution method
Proteus mirabilis [24] = test: Antibacterial activity against ceftazidime-susceptible Proteus mirabilis by CLSI M7-A7 broth microdilution method
Citrobacter freundii [25] = test: Antibacterial activity against ceftazidime-nonsusceptible Citrobacter freundii assessed as susceptible isolates by CLSI M7-A7 broth microdilution method
Enterobacter cloacae [26] = test: Antibacterial activity against ceftazidime-nonsusceptible Enterobacter cloacae assessed as resistant isolates by CLSI M7-A7 broth microdilution method
Escherichia coli [27] = test: Antibacterial activity against ceftazidime-susceptible Escherichia coli assessed as resistant isolates by CLSI M7-A7 broth microdilution method
Citrobacter freundii [28] = test: Antibacterial activity against ceftazidime-susceptible Citrobacter freundii by CLSI M7-A7 broth microdilution method
Citrobacter freundii [29] = test: Antibacterial activity against ceftazidime-susceptible Citrobacter freundii assessed as resistant isolates by CLSI M7-A7 broth microdilution method
Haemophilus influenzae [30] = test: Antibacterial activity against beta lactamase-positive Haemophilus influenzae assessed as susceptible isolates by CLSI M7-A7 broth microdilution method
Morganella morganii [31] = test: Antibacterial activity against ceftazidime-susceptible Morganella morganii assessed as resistant isolates by CLSI M7-A7 broth microdilution method
Enterobacteriaceae [32] = test: Antibacterial activity against ceftazidime-nonsusceptible Enterobacteriaceae by CLSI M7-A7 broth microdilution method
Providencia sp. [33] = test: Antibacterial activity against ceftazidime-susceptible Providencia sp. assessed as resistant isolates by CLSI M7-A7 broth microdilution method
Enterobacter cloacae [34] = test: Antibacterial activity against ceftazidime-susceptible Enterobacter cloacae assessed as resistant isolates by CLSI M7-A7 broth microdilution method
Serratia marcescens [35] = test: Antibacterial activity against ceftazidime-susceptible Serratia marcescens assessed as resistant isolates by CLSI M7-A7 broth microdilution method
Serratia marcescens [36] = test: Antibacterial activity against ceftazidime-susceptible Serratia marcescens by CLSI M7-A7 broth microdilution method
Enterobacter cloacae [37] = test: Antibacterial activity against ceftazidime-susceptible Enterobacter cloacae assessed as susceptible isolates by CLSI M7-A7 broth microdilution method
Escherichia coli [38] = test: Antibacterial activity against ceftazidime-susceptible Escherichia coli assessed as susceptible isolates by CLSI M7-A7 broth microdilution method
Enterobacteriaceae [39] = test: Antibacterial activity against ceftazidime-susceptible Enterobacteriaceae assessed as resistant isolates by CLSI M7-A7 broth microdilution method
Haemophilus influenzae [40] = test: Antibacterial activity against beta lactamase-positive Haemophilus influenzae by CLSI M7-A7 broth microdilution method
Providencia sp. [41] = test: Antibacterial activity against ceftazidime-susceptible Providencia sp. assessed as susceptible isolates by CLSI M7-A7 broth microdilution method
Acinetobacter [42] = test: Antibacterial activity against multidrug-resistant Acinetobacter by CLSI M7-A7 broth microdilution method
Providencia sp. [43] = test: Antibacterial activity against ceftazidime-susceptible Providencia sp. by CLSI M7-A7 broth microdilution method
Enterobacter cloacae [44] = test: Antibacterial activity against ceftazidime-nonsusceptible Enterobacter cloacae by CLSI M7-A7 broth microdilution method
Proteus mirabilis [45] = test: Antibacterial activity against ceftazidime-susceptible Proteus mirabilis assessed as resistant isolates by CLSI M7-A7 broth microdilution method
Enterobacteriaceae [46] = test: Antibacterial activity against ceftazidime-nonsusceptible Enterobacteriaceae assessed as resistant isolates by CLSI M7-A7 broth microdilution method
Haemophilus influenzae [47] = test: Antibacterial activity against beta lactamase-negative Haemophilus influenzae assessed as susceptible isolates by CLSI M7-A7 broth microdilution method
Enterobacteriaceae [48] = test: Antibacterial activity against ceftazidime-susceptible Enterobacteriaceae by CLSI M7-A7 broth microdilution method
Klebsiella pneumoniae [49] = test: Antibacterial activity against ceftazidime-nonsusceptible Klebsiella pneumoniae assessed as susceptible isolates by CLSI M7-A7 broth microdilution method
Citrobacter freundii [50] = test: Antibacterial activity against ceftazidime-nonsusceptible Citrobacter freundii assessed as resistant isolates by CLSI M7-A7 broth microdilution method

CC1(C)S[C@@H]2[C@H](NC(=O)[C@H](N)c3ccccc3)C(=O)N2[C@H]1C(=O)O [AMPICILLIN]
MIC50 (Klebsiella pneumoniae [1]): > 32 µg/mL
MIC90 (Klebsiella pneumoniae [1]): > 32 µg/mL
Activity (Escherichia coli [2]): 0%
Activity (Klebsiella pneumoniae [3]): 80%
MIC50 (Morganella morganii [4]): > 32 µg/mL
MIC90 (Morganella morganii [4]): > 32 µg/mL
MIC (Haemophilus influenzae [5]): ≤ 0.25 µg/mL
MIC50 (Haemophilus influenzae [5]): ≤ 0.25 µg/mL
MIC90 (Haemophilus influenzae [5]): 0.5 µg/mL (≈ 1.43 µM)
MIC (Citrobacter freundii [6]): > 32 µg/mL
MIC50 (Citrobacter freundii [6]): > 32 µg/mL
MIC90 (Citrobacter freundii [6]): > 32 µg/mL
Activity (Enterobacteriaceae [7]): 35.2%
Activity (Proteus mirabilis [8]): 72.4%
Activity (Citrobacter freundii [9]): 36%
Activity (Haemophilus influenzae [10]): 1%
Activity (Serratia marcescens [11]): 3.4%
Activity (Escherichia coli [12]): 100%
Activity (Enterobacter cloacae [13]): 0%
MIC50 (Escherichia coli [14]): 4 µg/mL (≈ 11.4 µM)
MIC90 (Escherichia coli [14]): > 32 µg/mL
MIC (Klebsiella pneumoniae [15]): > 32 µg/mL
MIC50 (Klebsiella pneumoniae [15]): > 32 µg/mL
MIC90 (Klebsiella pneumoniae [15]): > 32 µg/mL
Activity (Haemophilus influenzae [16]): 97%
Activity (Klebsiella pneumoniae [17]): 5.2%
MIC50 (Acinetobacter [18]): 16 µg/mL (≈ 45.8 µM)
MIC90 (Acinetobacter [18]): > 32 µg/mL
Activity (Klebsiella pneumoniae [19]): 100%
Activity (Enterobacteriaceae [20]): 0%
MIC50 (Enterobacter cloacae [21]): 32 µg/mL (≈ 91.6 µM)
MIC90 (Enterobacter cloacae [21]): > 32 µg/mL
MIC (Escherichia coli [22]): > 32 µg/mL
MIC50 (Escherichia coli [22]): > 32 µg/mL
MIC90 (Escherichia coli [22]): > 32 µg/mL
Activity (Morganella morganii [23]): 8.8%
MIC50 (Proteus mirabilis [24]): 1 µg/mL (≈ 2.86 µM)
MIC90 (Proteus mirabilis [24]): > 32 µg/mL
Activity (Citrobacter freundii [25]): 0%
Activity (Enterobacter cloacae [26]): 100%
Activity (Escherichia coli [27]): 40.9%
MIC50 (Citrobacter freundii [28]): 16 µg/mL (≈ 45.8 µM)
MIC90 (Citrobacter freundii [28]): > 32 µg/mL
Activity (Citrobacter freundii [29]): 42%
Activity (Haemophilus influenzae [30]): 2%
Activity (Morganella morganii [31]): 85.3%
MIC (Enterobacteriaceae [32]): > 32 µg/mL
MIC50 (Enterobacteriaceae [32]): > 32 µg/mL
MIC90 (Enterobacteriaceae [32]): > 32 µg/mL
Activity (Providencia sp. [33]): 66.7%
Activity (Enterobacter cloacae [34]): 66%
Activity (Serratia marcescens [35]): 83.1%
MIC50 (Serratia marcescens [36]): > 32 µg/mL
MIC90 (Serratia marcescens [36]): > 32 µg/mL
Activity (Enterobacter cloacae [37]): 20%
Activity (Escherichia coli [38]): 58.3%
Activity (Enterobacteriaceae [39]): 57%
MIC50 (Haemophilus influenzae [40]): 32 µg/mL (≈ 91.6 µM)
MIC90 (Haemophilus influenzae [40]): > 32 µg/mL
Activity (Providencia sp. [41]): 22.2%
MIC (Acinetobacter [42]): > 32 µg/mL
MIC50 (Acinetobacter [42]): > 32 µg/mL
MIC50 (Providencia sp. [43]): 32 µg/mL (≈ 91.6 µM)
MIC90 (Providencia sp. [43]): > 32 µg/mL
MIC (Enterobacter cloacae [44]): > 32 µg/mL
MIC50 (Enterobacter cloacae [44]): > 32 µg/mL
MIC90 (Enterobacter cloacae [44]): > 16 µg/mL
Activity (Proteus mirabilis [45]): 27.6%
Activity (Enterobacteriaceae [46]): 100%
Activity (Haemophilus influenzae [47]): 99%
MIC50 (Enterobacteriaceae [48]): 32 µg/mL (≈ 91.6 µM)
MIC90 (Enterobacteriaceae [48]): > 32 µg/mL
Activity (Klebsiella pneumoniae [49]): 0%
Activity (Citrobacter freundii [50]): 100%
